From patent US20210070748A1, “INHIBITORS OF BRUTONS TYROSINE KINASE” (Pharmacyclics LLC, priority 2015, published 2021) come the findings set out here.

Each structure is given as a SMILES string. Read-outs that look alike come from different tables or passages of the source.

By IC50 is commonly meant the concentration needed to halve the response being measured.

Holding throughout (assay type): biochemical
One experiment has as its target SRC (Homo sapiens, UniProt P12931). Briefly: Inhibition of a panel of kinases, in vitro HotSpot kinase assay: SRC. On the procedure:
(§1) The degree of inhibition of a panel of kinases is determined using the in vitro HotSpot kinase assay (purified enzymes, ^33P-ATP, an appropriate substrate and 1 μM ATP).

The next experiment has as its target T1, TEC (Homo sapiens, UniProt P42680).
T1 sequence (P42680 1-631): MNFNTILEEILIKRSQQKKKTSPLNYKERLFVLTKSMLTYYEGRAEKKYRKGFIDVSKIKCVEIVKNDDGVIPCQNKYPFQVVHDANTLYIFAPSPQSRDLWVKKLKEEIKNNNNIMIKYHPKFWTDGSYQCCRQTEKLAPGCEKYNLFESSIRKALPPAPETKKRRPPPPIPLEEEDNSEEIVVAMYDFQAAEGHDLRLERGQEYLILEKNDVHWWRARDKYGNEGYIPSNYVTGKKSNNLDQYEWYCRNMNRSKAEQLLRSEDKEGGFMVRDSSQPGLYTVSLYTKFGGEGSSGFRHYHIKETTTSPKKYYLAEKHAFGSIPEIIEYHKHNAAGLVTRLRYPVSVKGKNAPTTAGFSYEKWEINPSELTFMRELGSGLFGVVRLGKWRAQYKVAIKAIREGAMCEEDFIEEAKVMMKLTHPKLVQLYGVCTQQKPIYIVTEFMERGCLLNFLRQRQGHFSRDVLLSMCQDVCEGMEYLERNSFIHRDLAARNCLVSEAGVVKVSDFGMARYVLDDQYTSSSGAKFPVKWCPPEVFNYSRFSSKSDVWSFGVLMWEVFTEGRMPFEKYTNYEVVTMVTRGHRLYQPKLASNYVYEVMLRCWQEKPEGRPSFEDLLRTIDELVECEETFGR
Kind of experiment: Inhibition of a panel of kinases, in vitro HotSpot kinase assay: TEC. The method, then:
as §1

The next experiment has as its target EGFR (Homo sapiens, UniProt P00533). Briefly: Inhibition of a panel of kinases, in vitro HotSpot kinase assay: EGFR. The method, then:
as §1

Another experiment deals with T2, BTK-WT (Homo sapiens, UniProt Q06187).
T2 construct: purified from insect cells as a full-length construct containing an N-terminal 6X-His tag; His6 (N); made in house; host or cells: insect cells (baculovirus Sf21 in Method B)
Briefly: Btk in vitro inhibitory activity (one of Method A TR-FRET, Method B electrophoretic mobility shift, Method C radiometric filter binding). The conditions noted are these: read-out: IC50 BTK-WT. (In general: A gel shift assay detects complexes by their altered migration in electrophoresis.)

Where [1] appears, read: Table 13, A compounds, 1 μM ATP.

SRC, sequence (P12931 whole entry): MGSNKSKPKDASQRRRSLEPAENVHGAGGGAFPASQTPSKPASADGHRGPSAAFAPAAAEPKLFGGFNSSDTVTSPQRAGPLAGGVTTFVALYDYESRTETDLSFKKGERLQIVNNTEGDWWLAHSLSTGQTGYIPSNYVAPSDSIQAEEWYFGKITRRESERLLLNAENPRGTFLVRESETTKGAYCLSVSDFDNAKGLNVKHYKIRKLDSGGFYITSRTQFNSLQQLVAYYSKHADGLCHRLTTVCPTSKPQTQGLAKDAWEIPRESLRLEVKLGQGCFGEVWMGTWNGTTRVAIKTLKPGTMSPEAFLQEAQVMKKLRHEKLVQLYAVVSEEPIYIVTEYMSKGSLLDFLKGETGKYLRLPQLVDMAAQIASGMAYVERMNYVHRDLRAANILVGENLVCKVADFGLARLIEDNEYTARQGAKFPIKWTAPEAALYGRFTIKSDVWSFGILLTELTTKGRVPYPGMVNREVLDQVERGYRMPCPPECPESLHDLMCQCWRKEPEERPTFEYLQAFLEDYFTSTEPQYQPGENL
EGFR, sequence (P00533 25-1210): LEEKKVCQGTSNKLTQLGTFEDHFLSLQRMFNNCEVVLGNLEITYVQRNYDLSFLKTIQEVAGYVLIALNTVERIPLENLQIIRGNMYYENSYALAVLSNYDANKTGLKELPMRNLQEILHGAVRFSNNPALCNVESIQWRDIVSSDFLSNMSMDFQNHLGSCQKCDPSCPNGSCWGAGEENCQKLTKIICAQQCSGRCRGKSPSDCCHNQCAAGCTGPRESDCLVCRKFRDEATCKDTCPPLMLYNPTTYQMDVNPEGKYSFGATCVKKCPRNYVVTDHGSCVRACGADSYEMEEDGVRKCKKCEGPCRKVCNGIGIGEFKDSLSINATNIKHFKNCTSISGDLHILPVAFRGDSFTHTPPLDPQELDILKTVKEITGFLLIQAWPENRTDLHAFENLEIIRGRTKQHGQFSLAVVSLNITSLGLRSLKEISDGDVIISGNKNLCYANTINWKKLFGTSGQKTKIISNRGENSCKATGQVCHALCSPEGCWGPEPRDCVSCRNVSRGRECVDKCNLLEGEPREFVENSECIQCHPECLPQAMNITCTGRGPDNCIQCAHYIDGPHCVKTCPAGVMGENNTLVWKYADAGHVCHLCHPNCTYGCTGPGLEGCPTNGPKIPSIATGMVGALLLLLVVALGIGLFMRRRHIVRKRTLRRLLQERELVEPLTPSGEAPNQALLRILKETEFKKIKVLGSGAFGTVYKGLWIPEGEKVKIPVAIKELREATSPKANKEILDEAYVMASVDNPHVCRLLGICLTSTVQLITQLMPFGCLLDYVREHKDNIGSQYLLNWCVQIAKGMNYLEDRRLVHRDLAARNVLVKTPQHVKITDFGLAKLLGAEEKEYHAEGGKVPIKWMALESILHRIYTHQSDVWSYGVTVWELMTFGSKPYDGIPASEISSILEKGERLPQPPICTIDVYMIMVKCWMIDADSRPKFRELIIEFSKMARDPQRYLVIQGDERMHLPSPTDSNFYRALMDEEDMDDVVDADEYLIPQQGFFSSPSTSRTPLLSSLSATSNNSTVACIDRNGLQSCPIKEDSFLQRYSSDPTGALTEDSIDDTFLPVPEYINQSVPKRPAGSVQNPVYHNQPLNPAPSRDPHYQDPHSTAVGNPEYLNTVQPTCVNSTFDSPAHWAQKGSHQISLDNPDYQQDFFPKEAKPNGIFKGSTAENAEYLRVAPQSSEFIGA
T2 sequence (Q06187 whole entry): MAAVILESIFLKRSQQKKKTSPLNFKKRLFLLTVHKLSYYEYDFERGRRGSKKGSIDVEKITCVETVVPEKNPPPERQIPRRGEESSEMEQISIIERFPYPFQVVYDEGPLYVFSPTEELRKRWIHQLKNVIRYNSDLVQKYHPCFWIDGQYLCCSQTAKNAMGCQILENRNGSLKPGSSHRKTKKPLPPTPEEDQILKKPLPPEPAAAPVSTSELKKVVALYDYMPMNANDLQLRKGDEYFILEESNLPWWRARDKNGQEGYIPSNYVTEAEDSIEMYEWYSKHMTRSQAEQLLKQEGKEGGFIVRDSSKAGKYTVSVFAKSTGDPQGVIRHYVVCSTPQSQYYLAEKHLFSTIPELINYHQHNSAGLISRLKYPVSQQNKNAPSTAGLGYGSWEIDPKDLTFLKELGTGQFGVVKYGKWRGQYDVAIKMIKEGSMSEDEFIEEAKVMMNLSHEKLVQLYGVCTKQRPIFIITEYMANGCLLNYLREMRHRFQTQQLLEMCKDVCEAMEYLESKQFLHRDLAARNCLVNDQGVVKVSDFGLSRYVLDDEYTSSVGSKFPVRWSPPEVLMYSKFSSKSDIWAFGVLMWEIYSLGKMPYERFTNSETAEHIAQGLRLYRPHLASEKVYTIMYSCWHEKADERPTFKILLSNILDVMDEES

For `Cc1cc(Nc2nc(N3CC[C@H](O)[C@@H](N4CCC[C@@H](Nc5cc(Cl)cc(C(F)(F)F)c5)C4=O)C3)nnc2C(N)=O)sn1` [Example E-10, 3-((3R,3'S,4'S)-3-(3-chloro-5-(trifluoromethyl)phenylamino)-4′-hydroxy-2-oxo-1,3′-bipiperidin-1-yl)-5-(3-methylisothiazol-5-ylamino)-1,2,4-triazine-6-carboxamide], the half-inhibitory concentration (IC50) is at most 10 nM against SRC (E compounds, Table 17); 10 to 100 nM on TEC (E compounds, Table 17); 10 to 100 nM against EGFR (E compounds, Table 17); at most 10 nM at BTK-WT (E compounds, Table 17).
On to `C=CC(=O)N1CCC[C@@H](Nc2nnc(C(N)=O)c(Nc3ccc(-c4ncccn4)cc3)n2)C1` [Example E-41, (R)-3-(1-acryloylpiperidin-3-ylamino)-5-(4-(pyrimidin-2-yl)phenylamino)-1,2,4-triazine-6-carboxamide], for which the IC50 against SRC (E compounds, Table 17) is 100 to 1000 nM; against TEC (E compounds, Table 17) it was at most 10 nM; against EGFR (E compounds, Table 17) it was 10 to 100 nM; on BTK-WT (E compounds, Table 17) it was at most 10 nM.
Regarding `C[C@@H]1[C@H](NC(=O)c2ccc(C3CC3)cc2)CCCN1c1cnc(C(N)=O)c(Nc2cnc(C3CCOCC3)nc2)n1` [Example E-144, 5-((2R,3R)-3-(4-cyclopropylbenzamido)-2-methylpiperidin-1-yl)-3-((2-(tetrahydro-2H-pyran-4-yl)pyrimidin-5-yl)amino)pyrazine-2-carboxamide], the IC50 is 100 to 1000 nM at SRC (E compounds, Table 17); 100 to 1000 nM against TEC (E compounds, Table 17); above 10000 nM against EGFR (E compounds, Table 17); 10 to 100 nM on BTK-WT (E compounds, Table 17).
For the molecule `C=CC(=O)N1CC[C@@H](N(C)c2cnc(C(N)=O)c(Nc3cnn(CCOC)c3)n2)C1` [Example E-110, (R)-5-((1-acryloylpyrrolidin-3-yl)(methyl)amino)-3-(1-(2-methoxyethyl)-1H-pyrazol-4-ylamino)pyrazine-2-carboxamide], the IC50 against SRC (E compounds, Table 17) was 100 to 1000 nM; against TEC (E compounds, Table 17), at most 10 nM; at EGFR (E compounds, Table 17), 100 to 1000 nM; on BTK-WT (E compounds, Table 17), at most 10 nM.
Consider `C[C@@H]1[C@H](NC(=O)c2ccc(C3CC3)cc2)CCCN1c1cnc(C(N)=O)c(Nc2cnn(CCN(C)C)c2)n1` [Example A-182, 5-[(2R,3R)-3-(4-cyclopropylbenzamido)-2-methylpiperidin-1-yl]-3-({1-[2-(dimethylamino)ethyl]-1H-pyrazol-4-yl}amino)pyrazine-2-carboxamide], for which the IC50 on SRC (setting [1]) lay within 100 to 1000 nM; on TEC (setting [1]) it was 100 to 1000 nM; against EGFR (setting [1]), 1000 to 10000 nM; on BTK-WT (Table 13, A compounds), 10 to 100 nM.
With `C[C@@H]1[C@H](NC(=O)c2ccc(C3CC3)cc2F)CCCN1c1cnc(C(N)=O)c(Nc2ccc(N3CCN(C4CCCC4)CC3)cc2)n1` [Example A-125, 3-{[4-(4-cyclopentylpiperazin-1-yl)phenyl]amino}-5-[(2R,3R)-3-(4-cyclopropyl-2-fluorobenzamido)-2-methylpiperidin-1-yl]pyrazine-2-carboxamide], the IC50 against SRC (setting [1]) was 10 to 100 nM; against TEC (setting [1]) it was 10 to 100 nM; at EGFR (setting [1]) it was 100 to 1000 nM; on BTK-WT (Table 13, A compounds), at most 10 nM.
As to `Cn1cc(Nc2nc(N3C[C@H](NC(=O)c4ccc(C5CC5)cc4)CC(F)(F)C3)cnc2C(N)=O)cn1` [Example A-188, (R)-5-(5-(4-cyclopropylbenzamido)-3,3-difluoropiperidin-1-yl)-3-(1-methyl-1H-pyrazol-4-ylamino)pyrazine-2-carboxamide], the IC50 at SRC (setting [1]) was 100 to 1000 nM; against TEC (setting [1]) it was 100 to 1000 nM; at EGFR (setting [1]), 1000 to 10000 nM; on BTK-WT (Table 13, A compounds), at most 10 nM.
In the case of `C[C@@H]1[C@H](NC(=O)c2ccc(C3CC3)cc2F)CCCN1c1cnc(C(N)=O)c(Nc2ccc(N3CCN(C)C[C@@H]3C)cc2)n1` [Example A-176, 5-[(2R,3R)-3-(4-cyclopropyl-2-fluorobenzamido)-2-methylpiperidin-1-yl]-3-({4-[(2S)-2,4-dimethylpiperazin-1-yl]phenyl}amino)pyrazine-2-carboxamide], the IC50 at SRC (setting [1]) was 100 to 1000 nM; against TEC (setting [1]) it was 10 to 100 nM; at EGFR (setting [1]), 100 to 1000 nM; on BTK-WT (Table 13, A compounds), at most 10 nM.
